Measurements from US20040077664A1, “Pharmaceutical formulation comprising pyrazolo[4,3-d]pyrimidine and nitrates or thienopyrimidines and nitrates” (priority 2001, published 2004).
Where a name gives a salt, the structure may show the parent alone.

Compound | melting point
COc1ccc(CNc2nc(CCC(=O)O)nc3sc4c(c23)CCCC4)cc1Cl (as salt: salt) [Example 2 (formula I-I), 3-[4-(3-chloro-4-methoxybenzylamino)-5,6,7,8-tetrahydro-[1]-benzothieno[2,3-d]pyrimidin-2-yl]propionic acid] | 135 °C
CCCc1nn(C)c2c(NCc3ccc(OC)c(Cl)c3)nc(CCC(=O)O)nc12 [Example 2 (formula I), 3-[7-(3-chloro-4-methoxybenzylamino)-1-methyl-3-propyl-1H-pyrazolo-[4,3-d]pyrimidin-5-yl]propionic acid] | 178 °C
COc1ccc(CNc2nc(CCC(=O)O)nc3sc4c(c23)CCCC4)cc1Cl [Example 2 (formula I-I), 3-[4-(3-chloro-4-methoxybenzylamino)-5,6,7,8-tetrahydro-[1]-benzothieno[2,3-d]pyrimidin-2-yl]propionic acid] | 229 °C

The remaining lines, values ahead:

melting point | Compound
218 °C | COc1ccc(CNc2nc(CCC(=O)O)nc3sc4ccccc4c23)cc1Cl [Example 2 (formula I-II), 3-[4-(3-chloro-4-methoxybenzylamino)benzothieno[2,3-d]pyrimidin-2-yl]propionic acid]
203 to 204 °C | COC(=O)c1ccc(-c2nc(NCc3ccc(OC)c(Cl)c3)c3c(n2)sc2ccccc23)cc1 [Example 3 (formula I-II), methyl 4-[4-(3-chloro-4-methoxybenzylamino)-[1]-benzothieno[2,3-d]pyrimidin-2-yl]benzoate]
